How the values were obtained:
human A2AR = target: T1, human A2AR (Homo sapiens, UniProt P29274); assay: Displacement of specific [3H]-NECA binding at human A2AR expressed in CHO cells; details: [3H]-NECA displacement, means ± SE, read-out: hA2AR (Ki nM)
T1 construct: expressed in transfected cells; host or cells: CHO cells

human A1R = target: T2, human A1R (Homo sapiens, UniProt P30542); assay: Displacement of specific [3H]-CCPA binding at human A1R expressed in CHO cells; details: [3H]-CCPA displacement, means ± SE, read-out: hA1R (Ki nM)
T2 construct: expressed in transfected cells; host or cells: CHO cells
T2 sequence (P30542 1-326): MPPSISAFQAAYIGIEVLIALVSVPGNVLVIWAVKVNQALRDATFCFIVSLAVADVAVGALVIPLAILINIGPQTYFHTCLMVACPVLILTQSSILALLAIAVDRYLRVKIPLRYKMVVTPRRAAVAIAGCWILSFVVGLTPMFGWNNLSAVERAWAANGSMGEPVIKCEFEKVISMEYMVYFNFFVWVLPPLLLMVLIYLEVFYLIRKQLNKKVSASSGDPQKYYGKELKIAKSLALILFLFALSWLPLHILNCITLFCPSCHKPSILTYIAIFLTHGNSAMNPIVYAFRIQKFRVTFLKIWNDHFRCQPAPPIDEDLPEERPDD

hA2BR = target: T3, hA2BR (Homo sapiens, UniProt P29275); assay: Inhibition of NECA-stimulated adenylyl cyclase activity in CHO cells expressing hA2BR (GloSensor cAMP assay); assay type: cell-based; details: means ± SE
T3 construct: expressed in transfected cells; host or cells: cells stably expressing the receptor and the GloSensor biosensor (CHO)
T3 sequence (P29275 1-332): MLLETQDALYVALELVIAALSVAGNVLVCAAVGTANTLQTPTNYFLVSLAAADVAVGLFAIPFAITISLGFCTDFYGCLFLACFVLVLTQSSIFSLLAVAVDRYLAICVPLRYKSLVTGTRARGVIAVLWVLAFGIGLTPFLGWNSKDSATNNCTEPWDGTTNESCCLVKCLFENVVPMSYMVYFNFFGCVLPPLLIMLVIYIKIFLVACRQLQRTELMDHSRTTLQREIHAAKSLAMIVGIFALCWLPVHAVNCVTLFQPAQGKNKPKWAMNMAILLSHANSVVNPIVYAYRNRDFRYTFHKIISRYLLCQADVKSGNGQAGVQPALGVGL
Procedure: The activity of compounds understudy was evaluated using the GloSensor™ (Promega Corporation) cAMP assay, which is a new non-radioactive method offering a simple approach to monitor GPCR activity through change in the intracellular cAMP concentration. This assay uses a mutant form of Photinus pyralis luciferase into which a cAMP-binding protein moiety has been inserted. The binding with cAMP triggers a biosensor conformational change that leads to an increase of light output allowing to evaluate the activity of ligands at the receptor under study. Following pre-equilibration with a substrate, cells stably expressing both the receptor of interest and the biosensor can be used to evaluate GPCR function enabling easy kinetic measurements of cAMP accumulation or turnover in living cells.
The antagonist profile of the compounds on A2BR was evaluated by assessing their ability to counteract the agonist NECA-induced increase of cAMP accumulation. After 2 hours of equilibration in reaction medium cells were incubated in 384 well plate (10 minutes at room temperature) with 3 μL of different antagonist concentrations and then treated with 3 μL of a fixed dose of NECA. After another 10 minutes of incubation various luminescence reads were performed at different incubation times.

human A3R = target: T4, human A3R (Homo sapiens, UniProt P0DMS8); assay: Displacement of specific [3H]-HEMADO binding at human A3R expressed in CHO cells; details: [3H]-HEMADO displacement, means ± SE, read-out: hA3R (Ki nM)
T4 construct: expressed in transfected cells; host or cells: CHO cells
T4 sequence (P0DMS8 1-318): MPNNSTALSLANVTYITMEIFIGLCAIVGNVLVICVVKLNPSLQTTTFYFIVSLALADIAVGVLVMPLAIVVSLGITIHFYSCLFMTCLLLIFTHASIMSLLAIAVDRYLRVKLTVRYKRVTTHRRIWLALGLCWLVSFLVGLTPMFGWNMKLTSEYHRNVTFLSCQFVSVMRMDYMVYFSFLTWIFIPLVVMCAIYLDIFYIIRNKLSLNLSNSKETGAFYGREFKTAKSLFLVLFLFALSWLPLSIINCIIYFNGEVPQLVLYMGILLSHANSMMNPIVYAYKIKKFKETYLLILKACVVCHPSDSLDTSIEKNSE

T1 sequence (P29274 whole entry): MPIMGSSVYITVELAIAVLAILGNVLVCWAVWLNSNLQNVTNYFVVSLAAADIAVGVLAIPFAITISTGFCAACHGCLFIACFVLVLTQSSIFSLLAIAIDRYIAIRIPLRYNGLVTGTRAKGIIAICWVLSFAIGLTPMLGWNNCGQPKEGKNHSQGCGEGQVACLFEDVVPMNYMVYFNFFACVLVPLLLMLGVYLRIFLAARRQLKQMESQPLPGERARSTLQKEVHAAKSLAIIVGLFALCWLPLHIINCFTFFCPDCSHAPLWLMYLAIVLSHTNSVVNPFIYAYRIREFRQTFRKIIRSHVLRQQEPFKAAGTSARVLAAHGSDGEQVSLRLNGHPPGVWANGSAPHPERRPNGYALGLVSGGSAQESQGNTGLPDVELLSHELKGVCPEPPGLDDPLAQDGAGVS

Row | SMILES | Ki (human A2AR) | Ki (human A1R) | IC50 (hA2BR) | Ki (human A3R)
1 | CCOC(=O)c1cc(C(=O)c2ccc(C#N)cc2)n2ccc(C(=O)OC(C)C)cc12 [KNV-ISP10, 1-Ethyl 7-isopropyl 3-(4-cyanobenzoyl)indolizine-1,7-dicarboxylate] | > 30000 nM | > 30000 nM | > 30000 nM | 7670 ± 1730 nM
2 | COC(=O)c1c(C(=O)OC)c2cc(C(=O)OC(C)C)ccn2c1C(=O)c1ccc(C)cc1 [KNV-ISP11, 7-Isopropyl 1,2-dimethyl 3-(4-methylbenzoyl)indolizine-1,2,7-tricarboxylate] | 2921 ± 13 nM | 692 ± 41 nM | > 30000 nM | 1600 ± 14 nM
3 | CCOC(=O)c1cc(C(=O)c2ccccc2)n2ccc(C(=O)OC(C)C)cc12 [KNV-ISP2, 1-Ethyl 7-isopropyl 3-benzoylindolizine-1,7-dicarboxylate] | > 30000 nM | 7050 ± 706 nM | > 30000 nM | 3640 ± 837 nM
4 | CCOC(=O)c1cc(C(=O)c2ccc(Cl)cc2)n2ccc(C(=O)OC(C)C)cc12 [KNV-ISP6, 1-Ethyl 7-isopropyl 3-(4-chlorobenzoyl)indolizine-1,7-dicarboxylate] | > 30000 nM | > 30000 nM | > 30000 nM | 14300 ± 480 nM
5 | COC(=O)c1c(C(=O)OC)c2cc(C(=O)OC(C)C)ccn2c1C(=O)c1ccc(Cl)cc1 [KNV-ISP5, 7-Isopropyl 1,2-dimethyl 3-(4-chlorobenzoyl)indolizine-1,2,7-tricarboxylate] | 7400 ± 833 nM | 3712 ± 12 nM | > 30000 nM | 7597 ± 29 nM
6 | COC(=O)c1c(C(=O)OC)c2cc(C(=O)OC(C)C)ccn2c1C(=O)c1ccc(F)cc1 [KNV-ISP3, 7-Isopropyl 1,2-dimethyl 3-(4-fluorobenzoyl)indolizine-1,2,7-tricarboxylate] | 3950 ± 695 nM | 2710 ± 388 nM | > 30000 nM | 1400 ± 348 nM
7 | COC(=O)c1c(C(=O)OC)c2cc(C(=O)OC(C)C)ccn2c1C(=O)c1ccc(Br)cc1 [KNV-ISP7, 7-Isopropyl 1,2-dimethyl 3-(4-bromobenzoyl)indolizine-1,2,7-tricarboxylate] | 14900 ± 3750 nM | 5410 ± 711 nM | > 30000 nM | 1220 ± 339 nM
8 | COC(=O)c1c(C(=O)OC)c2cc(C(=O)OC(C)C)ccn2c1C(=O)c1ccccc1 [KNV-ISP1, 7-Isopropyl 1,2-dimethyl 3-benzoylindolizine-1,2,7-tricarboxylate] | 2690 ± 631 nM | 1640 ± 37 nM | > 30000 nM | 2200 ± 313 nM
9 | CCOC(=O)c1cc(C(=O)c2ccc(F)cc2)n2ccc(C(=O)OC(C)C)cc12 [KNV-ISP4, 1-Ethyl 7-isopropyl 3-(4-fluorobenzoyl)indolizine-1,7-dicarboxylate] | > 30000 nM | 6980 ± 577 nM | > 30000 nM | 665 ± 26 nM
10 | CCOC(=O)c1cc(C(=O)c2ccc(Br)cc2)n2ccc(C(=O)OC(C)C)cc12 [KNV-ISP8, 1-Ethyl 7-isopropyl 3-(4-bromobenzoyl)indolizine-1,7-dicarboxylate] | > 30000 nM | > 30000 nM | > 30000 nM | 1680 ± 283 nM
11 | COC(=O)c1c(C(=O)OC)c2cc(C(=O)OC(C)C)ccn2c1C(=O)c1ccc(C#N)cc1 [KNV-ISP9, 7-Isopropyl 1,2-dimethyl 3-(4-cyanobenzoyl)indolizine-1,2,7-tricarboxylate] | 10300 ± 1340 nM | > 30000 nM | > 30000 nM | 6210 ± 338 nM

Source: patent US11981673B1, “7-isopropyl 1,2-dimethyl 3-(substituted benzoyl)indolizine-1,2,7 tricarboxylates as adenosine receptor active compounds” (KING FAISAL UNIVERSITY, priority 2023, dated 2024)
